Test results taken from US7541367B2, “3-benzoimidazolyl-pyrazolopyridines useful in treating kinase disorders” (Janssen Pharmaceutica, N.V., priority 2005, dated 2009).
pIC50: −log10 of the molar value.

Tests used:
CDK1 = target: T1, CDK1 (Homo sapiens, UniProt P06493); test: CDK-1 kinase screening assay (33P-ATP FlashPlate); assay type: biochemical; settings: human CDK1 with cyclin B; 10 μM ATP; 1 hr at 30° C
T1 construct: purchased New England Biolabs, Beverly, Mass; 6020; host or cells: insect cells
T1 sequence (P06493 whole entry): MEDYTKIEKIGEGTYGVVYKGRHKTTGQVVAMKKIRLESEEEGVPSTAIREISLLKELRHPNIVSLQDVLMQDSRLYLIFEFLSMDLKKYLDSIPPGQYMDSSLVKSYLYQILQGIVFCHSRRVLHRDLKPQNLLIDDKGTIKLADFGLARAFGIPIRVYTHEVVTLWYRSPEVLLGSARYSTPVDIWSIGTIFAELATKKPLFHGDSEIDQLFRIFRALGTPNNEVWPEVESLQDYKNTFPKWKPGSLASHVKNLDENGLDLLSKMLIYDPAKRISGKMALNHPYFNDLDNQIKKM
T1 sequence (P14635 whole entry partner): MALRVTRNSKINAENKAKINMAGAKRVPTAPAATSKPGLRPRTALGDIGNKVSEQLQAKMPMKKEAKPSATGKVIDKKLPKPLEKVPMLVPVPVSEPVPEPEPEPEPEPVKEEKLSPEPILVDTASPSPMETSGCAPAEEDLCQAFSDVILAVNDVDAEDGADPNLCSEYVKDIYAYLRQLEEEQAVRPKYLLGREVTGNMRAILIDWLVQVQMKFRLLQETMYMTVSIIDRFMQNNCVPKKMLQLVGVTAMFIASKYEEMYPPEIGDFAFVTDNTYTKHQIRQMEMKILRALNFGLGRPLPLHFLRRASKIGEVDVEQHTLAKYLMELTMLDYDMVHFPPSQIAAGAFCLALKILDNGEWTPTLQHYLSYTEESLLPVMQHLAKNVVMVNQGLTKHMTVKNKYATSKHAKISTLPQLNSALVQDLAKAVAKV
Description: A kinase reaction mixture was prepared containing 50 mM Tris-HCl pH=8, 10 mM MgCl2, 0.1 mM […], 1 mM DTT, 10 μM ATP, 0.025 μM biotinylated histone-H1 peptide substrate and 0.2 μCuries per well ^33P-γ-ATP (2000-3000 Ci/mmol). 70 μL of the kinase reaction mixture was dispensed into the well of a streptavidin coated FlashPlate™ (Cat. # SMP103, NEN, Boston, Mass.).
Test compound stock in 100% DMSO (1 μL) was added to the wells resulting in a final concentration of 1% DMSO in the reaction with a 100 μL final reaction volume. Each enzyme was diluted in 50 mM Tris-HCl pH=8.0, 0.11% BSA and 30 μL was added to each well to initiate the reaction. The reaction was incubated for one hour at 30° C. At the end of the 1 hr incubation, the reaction was terminated by aspirating the mixture from the plate and washing the wells twice with PBS containing 100 mM EDTA. The biotinylated peptide substrate became immobilized on the Flashplate™ and the incorporation of ^33P-γ-ATP was measured by reading the plate on a scintillation counter. Inhibition of the enzymatic activity was measured by observing a reduced amount of ^33P-γ-ATP incorporated into the immobilized peptide.
The CDK1 enzyme was isolated from insect cells expressing both the human CDK1 catalytic subunit (Accession number NM_001786) and its positive regulatory subunit cyclin B (New England Biolabs, Beverly, Mass.; Cat. # 6020). The assay used 30 ng of the N-terminal biotinylated peptide biotin-[…]-amide (Cyclin dependent kinase 1) per well.
A maximum and minimum signal for the assay was determined on each plate. The percent inhibition of a test compound was calculated according to the formula: […]
For a series of test concentrations, the IC50 was derived by graphing percent inhibition against the log of the concentrations tested for a given compound with results shown in Table 1.
For compounds with multiple values, each value represents a separate assay result.

VEGF-R2 = target: T2, VEGF-R2 (Rattus norvegicus, UniProt O08775); test: VEGF-R2 kinase screening assay (33P-ATP FlashPlate); assay type: biochemical; settings: rat VEGF-R2 kinase domain; 10 μM ATP; 1 hr at 30° C;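 further: Read-out is ³³P incorporation from ³³P-γ-ATP into biotinylated peptide substrate captured on streptavidin FlashPlate, counted by scintillation, 1% DMSO final, inhibition scaled between per-plate maximum and minimum signals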
T2 construct: polyhistidine (N)
T2 sequence (O08775 786-1343): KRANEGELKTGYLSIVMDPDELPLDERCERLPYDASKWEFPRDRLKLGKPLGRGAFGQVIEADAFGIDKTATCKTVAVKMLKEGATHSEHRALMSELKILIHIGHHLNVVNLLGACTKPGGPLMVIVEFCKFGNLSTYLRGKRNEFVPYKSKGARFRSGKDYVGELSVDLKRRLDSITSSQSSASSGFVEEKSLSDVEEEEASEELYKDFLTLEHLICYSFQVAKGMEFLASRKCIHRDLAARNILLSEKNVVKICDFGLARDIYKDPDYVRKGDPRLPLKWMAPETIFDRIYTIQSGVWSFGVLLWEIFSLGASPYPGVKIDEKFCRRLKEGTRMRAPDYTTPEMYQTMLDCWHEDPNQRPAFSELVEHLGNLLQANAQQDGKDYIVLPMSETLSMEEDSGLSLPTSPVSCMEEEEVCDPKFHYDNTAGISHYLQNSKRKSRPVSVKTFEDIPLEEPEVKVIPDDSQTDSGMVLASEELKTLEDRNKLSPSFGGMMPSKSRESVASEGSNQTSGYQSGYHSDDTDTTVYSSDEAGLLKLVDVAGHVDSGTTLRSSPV

HER2 = target: T3, HER2 (Homo sapiens, UniProt P04626); test: HER2 kinase screening assay (33P-ATP FlashPlate); assay type: biochemical; settings: GST-HIS6 HER-2 aa 679 to 1255; 10 μM ATP; 1 hr at 30° C;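 further: Biotin-poly(GT) 4:1 peptide captured on streptavidin FlashPlate, 33P transfer from γ-ATP read by scintillation counting, lower incorporation means inhibition, 1% DMSO final, 100 µL reaction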
T3 construct: GST (Glutathione-S-Transferase) (N); HIS6 (N); thrombin cleavage site (N); purchased Proqinase, Freiburg, Germany
T3 sequence (P04626 679-1255): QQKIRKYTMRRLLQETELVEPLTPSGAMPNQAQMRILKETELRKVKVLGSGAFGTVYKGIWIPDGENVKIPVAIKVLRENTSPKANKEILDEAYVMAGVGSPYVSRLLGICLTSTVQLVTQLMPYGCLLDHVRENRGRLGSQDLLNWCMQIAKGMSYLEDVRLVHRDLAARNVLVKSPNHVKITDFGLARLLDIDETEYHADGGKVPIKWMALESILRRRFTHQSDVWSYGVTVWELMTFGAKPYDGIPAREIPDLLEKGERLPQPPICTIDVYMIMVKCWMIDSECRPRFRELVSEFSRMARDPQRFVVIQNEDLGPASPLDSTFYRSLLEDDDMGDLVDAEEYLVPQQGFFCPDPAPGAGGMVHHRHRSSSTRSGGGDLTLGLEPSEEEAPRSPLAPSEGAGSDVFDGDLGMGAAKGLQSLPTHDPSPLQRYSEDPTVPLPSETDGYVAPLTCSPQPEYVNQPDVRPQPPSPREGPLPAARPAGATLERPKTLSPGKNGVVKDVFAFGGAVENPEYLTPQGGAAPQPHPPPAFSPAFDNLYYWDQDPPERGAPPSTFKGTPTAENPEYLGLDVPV

[1] = tested on: HeLa cervical adenocarcinoma; test: Cell Proliferation Inhibition Assay (14C-thymidine incorporation), HeLa; assay type: cell-based; settings: Homo sapiens, HeLa cells;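 further: test compound in DMSO added to cells seeded in scintillating 96-well plates, DMSO-only wells as control, uptake of methyl 14C-thymidine into new DNA counted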
A375 malignant melanoma = test: Cell Proliferation Inhibition Assay (14C-thymidine incorporation), A375; assay type: cell-based; settings: Homo sapiens, A-375, A375 cells;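 further: proliferation measured by radiolabelled thymidine uptake into new DNA, counted in scintillating 96-well plates, compound-treated wells compared with DMSO-only control wells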
HCT-116 colon carcinoma = test: Cell Proliferation Inhibition Assay (14C-thymidine incorporation), HCT-116; assay type: cell-based; settings: Homo sapiens;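 further: proliferation measured as methyl 14C-thymidine uptake into new DNA, counted in 96-well scintillating microplates, compared with DMSO-only control wells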
Aurora-A = target: T4, Aurora-A (Mus musculus, UniProt P97477); test: Aurora-A kinase screening assay (33P-ATP FlashPlate); assay type: biochemical; settings: 10 μM ATP, 1 hr at 30° C;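 further: His-tagged mouse Aurora-A phosphorylating a biotinylated peptide captured on streptavidin plates, read as 33P uptake by scintillation counting, 1% DMSO, inhibition scaled between per-plate maximum and minimum signals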
T4 construct: polyhistidine (N)
T4 sequence (P97477 1-395): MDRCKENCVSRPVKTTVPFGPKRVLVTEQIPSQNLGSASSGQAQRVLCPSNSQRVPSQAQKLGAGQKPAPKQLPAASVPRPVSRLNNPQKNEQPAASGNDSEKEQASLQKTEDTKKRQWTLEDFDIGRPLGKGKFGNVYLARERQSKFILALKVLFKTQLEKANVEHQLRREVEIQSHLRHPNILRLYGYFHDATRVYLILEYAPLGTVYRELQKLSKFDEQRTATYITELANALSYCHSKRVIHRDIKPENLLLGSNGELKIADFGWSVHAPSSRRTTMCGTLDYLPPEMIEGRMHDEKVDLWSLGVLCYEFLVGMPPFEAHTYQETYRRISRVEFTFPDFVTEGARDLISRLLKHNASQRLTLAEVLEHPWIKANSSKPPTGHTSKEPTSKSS

| Compound | pIC50 (CDK1) | pIC50 (VEGF-R2) | pIC50 (HER2) | pIC50 ([1]; HeLa) | pIC50 (A375 malignant melanoma) | pIC50 (HCT-116 colon carcinoma; HCT-116, HCT-116 cells) | pIC50 (Aurora-A) | pIC50 [1] | pIC50 (HCT-116 colon carcinoma; HCT-116 cells) |
| --- | --- | --- | --- | --- | --- | --- | --- | --- | --- |
| c1ccc2c(-c3cnc4[nH]nc(-c5nc6ccccc6[nH]5)c4c3)cncc2c1 [Cpd 1, 4-[3-(1H-benzoimidazol-2-yl)-1H-pyrazolo[3,4-b]pyridin-5-yl]-isoquinoline] | 7.63 | 5.83 | 6.85 |  |  |  |  |  |  |
| Cc1cccc2[nH]c(-c3n[nH]c4ncc(-c5cncc6ccccc56)cc34)nc12 [Cpd 2, 4-[3-(4-methyl-1H-benzoimidazol-2-yl)-1H-pyrazolo[3,4-b]pyridin-5-yl]-isoquinoline] | 7.01 |  |  | 5.51 | 5.77 | 5.79 |  |  |  |
| CCN(CC)Cc1cccc2[nH]c(-c3n[nH]c4ncc(-c5cncc6ccccc56)cc34)nc12 [Cpd 5, diethyl-[2-(5-isoquinolin-4-yl-1H-pyrazolo[3,4-b]pyridin-3-yl)-1H-benzoimidazol-4-ylmethyl]-amine] |  | 5.81 |  | 7.54 | 7.33 | 7.51 |  |  |  |
| COCc1cccc2[nH]c(-c3n[nH]c4ncc(Br)cc34)nc12 [Cpd 11, 5-bromo-3-(4-methoxymethyl-1H-benzoimidazol-2-yl)-1H-pyrazolo[3,4-b]pyridine] | 6.45 | 6.04 |  | 5.74 | 6.06 | 6.06 | ~5.00 |  |  |
| CC(C)NC(=O)c1cccc2[nH]c(-c3n[nH]c4ncc(-c5cncc6ccccc56)cc34)nc12 [Cpd 18, 2-(5-isoquinolin-4-yl-1H-pyrazolo[3,4-b]pyridin-3-yl)-1H-benzoimidazole-4-carboxylic acid isopropylamide] | 8.40 | 6.42 | < 5.00 | 7.45 | 7.19 | 7.38 | < 7.00 |  |  |
| CCN(CC)C(=O)c1cccc2[nH]c(-c3n[nH]c4ncc(-c5cncc6ccccc56)cc34)nc12 [Cpd 19, 2-(5-isoquinolin-4-yl-1H-pyrazolo[3,4-b]pyridin-3-yl)-1H-benzoimidazole-4-carboxylic acid diethylamide] | 7.27 | ~5.00 | ~4.00 | 6.01 | 5.80 | 5.74 | < 6.00 |  |  |
| CC(C)(C)NC(=O)c1cccc2[nH]c(-c3n[nH]c4ncc(-c5cncc6ccccc56)cc34)nc12 [Cpd 20, 2-(5-isoquinolin-4-yl-1H-pyrazolo[3,4-b]pyridin-3-yl)-1H-benzoimidazole-4-carboxylic acid tert-butylamide] | 7.54 | ~5.00 | < 5.00 | 6.78 | 7.15 | 7.26 | ~6.00 |  |  |
| CN1CCN(c2ccc3[nH]c(-c4n[nH]c5ncc(Br)cc45)nc3c2)CC1 [Cpd 30, 5-bromo-3-[5-(4-methyl-piperazin-1-yl)-1H-benzoimidazol-2-yl]-1H-pyrazolo[3,4-b]pyridine] | 6.37 | 6.62 | < 5.00 | 5.51 | 5.77 | 5.60 | ~6.00 |  |  |
| COCc1cccc2[nH]c(-c3n[nH]c4ncc(-c5cccnc5)cc34)nc12 [Cpd 35, 3-(4-methoxymethyl-1H-benzoimidazol-2-yl)-5-pyridin-3-yl-1H-pyrazolo[3,4-b]pyridine] | 7.53 | 6.80 | < 4.00 | 6.19 | 7.48 | 7.73 | < 6.00 |  |  |
| COCc1cccc2[nH]c(-c3n[nH]c4ncc(-c5c[nH]c6ncccc56)cc34)nc12 [Cpd 37, 3-(4-methoxymethyl-1H-benzoimidazol-2-yl)-5-(1H-pyrrolo[2,3-b]pyridin-3-yl)-1H-pyrazolo[3,4-b]pyridine] | 7.06 | < 8.00 | < 4.00 | 5.73 | 7.70 | 8.30 | 6.72 |  |  |
| CCNCc1cncc(-c2cnc3[nH]nc(-c4nc5c(COC)cccc5[nH]4)c3c2)c1C [Cpd 59, ethyl-{5-[3-(4-methoxymethyl-1H-benzoimidazol-2-yl)-1H-pyrazolo[3,4-b]pyridin-5-yl]-4-methyl-pyridin-3-ylmethyl}-amine] | 6.97 | 5.33 |  |  |  |  | 5.10 |  |  |
| CCCNCc1cncc(-c2cnc3[nH]nc(-c4nc5cc(N6CCN(C)CC6)ccc5[nH]4)c3c2)c1 [Cpd 85, (5-{3-[5-(4-methyl-piperazin-1-yl)-1H-benzoimidazol-2-yl]-1H-pyrazolo[3,4-b]pyridin-5-yl}-pyridin-3-ylmethyl)-propyl-amine] | 8.73 | 6.79 | 5.74 |  | 6.39 |  | 6.55 | 6.16 | 6.11 |
| COCCNCc1cncc(-c2cnc3[nH]nc(-c4nc5cc(N6CCN(C)CC6)ccc5[nH]4)c3c2)c1 [Cpd 86, (2-methoxy-ethyl)-(5-{3-[5-(4-methyl-piperazin-1-yl)-1H-benzoimidazol-2-yl]-1H-pyrazolo[3,4-b]pyridin-5-yl}-pyridin-3-ylmethyl)-amine] | 8.29 | ~7.00 | 5.98 |  | 5.60 |  | 6.37 | 5.64 | 5.64 |
| CN1CCN(c2ccc3[nH]c(-c4n[nH]c5ncc(-c6cncc(CN7CCCC7)c6)cc45)nc3c2)CC1 [Cpd 87, 3-[5-(4-methyl-piperazin-1-yl)-1H-benzoimidazol-2-yl]-5-(5-pyrrolidin-1-ylmethyl-pyridin-3-yl)-1H-pyrazolo[3,4-b]pyridine] | 7.53 | 6.95 | 4.92 | 5.67 | 6.09 | 5.98 | 6.35 |  |  |
| COC(=O)c1ccc2[nH]c(-c3n[nH]c4ncc(-c5cccnc5)cc34)nc2c1 [Cpd 91, 2-(5-pyridin-3-yl-1H-pyrazolo[3,4-b]pyridin-3-yl)-3H-benzoimidazole-5-carboxylic acid methyl ester] | 7.95 |  |  | 6.08 | 6.37 | 6.41 |  |  |  |
| COC(=O)c1cccc2[nH]c(-c3n[nH]c4ncc(-c5cccnc5)cc34)nc12 [Cpd 93, 2-(5-pyridin-3-yl-1H-pyrazolo[3,4-b]pyridin-3-yl)-1H-benzoimidazole-4-carboxylic acid methyl ester] |  |  |  | ≤ 4.00 | ≤ 4.00 | ≤ 4.00 |  |  |  |
| CNCc1cncc(-c2cnc3[nH]nc(-c4nc5cc6c(cc5[nH]4)OC(F)(F)O6)c3c2)c1 [Cpd 100, {5-[3-(2,2-difluoro-5H-[1,3]dioxolo[4′,5′:4,5]benzo[1,2-d]imidazol-6-yl)-1H-pyrazolo[3,4-b]pyridin-5-yl]-pyridin-3-ylmethyl}-methyl-amine] | 8.80 | ~7.00 | 5.15 | 7.26 | 7.28 | 6.63 | ~5.00 |  |  |
| CCCNCc1cncc(-c2cnc3[nH]nc(-c4nc5cc(OC)ccc5[nH]4)c3c2)c1 [Cpd 103, {5-[3-(5-methoxy-1H-benzoimidazol-2-yl)-1H-pyrazolo[3,4-b]pyridin-5-yl]-pyridin-3-ylmethyl}-propyl-amine] | 9.40 | 7.32 | 5.67 |  | 7.41 |  | 6.57 | 7.21 | 7.47 |
